Where a name gives a salt, the structure may show the parent alone.
Molecular target: human NK1R (Homo sapiens, UniProt P25103)
Test: biochemical
Assay type: binding
Conditions: for IC50: displacement of 125I-substance P, human NK1R in COS or CHO cells
Protocol: To express the cloned human neurokinin-1-receotor (NK1R) transiently in COS, the cDNA for the human NK1R was cloned into the expression vector pCDM9 which was derived from pCDM8 (INVITROGEN) by inserting the ampicillin resistance gene (nucleotide 1973 to 2964 from BLUESCRIPT SK+ (trademark, […], La Jolla, Calif., U.S.A.)) into the Sac II site. Transfection of 20 ug of the plasmid DNA into 10 million COS cells was achieved by electroporation in 800 μl of transfection buffer (135 mM NaCl, 1.2 mM CaCl2, 1.2 mM MgCl2, 2.4 mM K2 HPO4, 0.6 mM KH2 PO4, 10 mM glucose, 10 mM N-2-hydroxyethyl-piperazine-N'-2-ethane sulphonic acid (HEPES) pH 7.4) at 260 V and 950 μF using the IBI GENEZAPPER (trademark IBI, New Haven, Conn., U.S.A.). The cells were incubated in 10% fetal calf serum, 2 mM glutamine, 100 U/ml penicillin-streptomycin, and 90% DMEM media (GIBCO, Grand Island, N.Y., U.S.A.) in 5% CO2 at 37° C. for three days before the binding assay.
To establish a stable cell line expressing cloned human NK1R, the cDNA was subcloned into the vector pRcCMV (INVITROGEN). Transfection of 20 ug of the plasmid DNA into CHO cells was achieved by electroporation in 800 μl of transfection buffer supplemented with 0.625 mg/ml Herring sperm DNA at 300 V and 950 μF using the IBI GENEZAPPER (IBI). The transfected cells were incubated. in CHO media [10% fetal calf serum, 100 U/ml penicillin-streptomycin, 2 mM glutamine, 1/500 hypoxanthinethymidine (ATCC), 90% IMDM media (JRH BIOSCIENCES, Lenexa, Kans., U.S.A.), 0.7 mg/ml G418 (GIBCO)] in 5% CO2 at 37° C. until colonies were visible. Each colony was separated and propagated. The cell clone with the highest number of human NK1R was selected for subsequent applications such as drug screening.
The binding assay of human NK1R expressed in either COS or CHO cells is based on the use of ^125 I-substance P (^125 I-SP, from DU PONT, Boston, Mass.) as a radioactively labeled ligand which competes with unlabeled substance P or any other ligand for binding to the human NK1R. […] The tubes were incubated at 4° C. or at room temperature for 1 hour with gentle shaking. The bound radioactivity was separated from unbound radioactivity by GF/C filter (BRANDEL, Gaithersburg, Md.) which was prewetted with 0.1% polyethylenimine. The filter was washed with 3 ml of wash buffer (50 mM Tris pH 7.5, 5 mM MnCl2, 150 mM NaCl) three times and its radioactivity was determined by gamma counter.

Sequence of human NK1R (P25103 whole entry): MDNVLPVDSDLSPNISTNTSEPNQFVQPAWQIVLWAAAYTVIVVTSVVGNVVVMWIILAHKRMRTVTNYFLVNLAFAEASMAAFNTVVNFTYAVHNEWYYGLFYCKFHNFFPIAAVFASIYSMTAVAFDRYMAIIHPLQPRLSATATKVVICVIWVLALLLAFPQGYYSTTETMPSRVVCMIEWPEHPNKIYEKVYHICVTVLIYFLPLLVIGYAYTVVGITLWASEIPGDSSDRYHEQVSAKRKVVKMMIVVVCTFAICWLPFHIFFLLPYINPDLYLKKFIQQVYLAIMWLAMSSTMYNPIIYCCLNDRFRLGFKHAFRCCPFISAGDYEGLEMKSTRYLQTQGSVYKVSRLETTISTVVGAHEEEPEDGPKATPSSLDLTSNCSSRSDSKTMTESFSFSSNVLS

Structure (SMILES) | IC50 [nM] | inhibition at 0.3 µM (1 h, @ 03 μM, read-out: Substance P antagonism (%)) [%]
NC(=O)CNC(COCc1cc(C(F)(F)F)cc(C(F)(F)F)c1)C(c1ccccc1)c1ccccc1 (stereo not shown) [Example 30, 1-((3,5-Bis(trifluoromethyl)phenyl)methyloxy)-2-((carboxamido)methyl)ammoninm)-3,3-diphenylpropane oxalate salt] | 0.4 | 
NC(COCc1cccc(Br)c1)C(c1ccccc1)c1ccccc1 (stereo not shown) [Example 31, 2-Ammonium-1-((3-bromophenyl)methyloxy)-3,3-diphenylpropane oxalate salt] | 200 | 
NC(COCc1cc(Br)cc(Br)c1)C(c1ccccc1)c1ccccc1 (stereo not shown) [Example 32, 2-Ammonium-1-((3,5-dibromophenyl)methyloxy)-3,3-diphenylpropane oxalate salt] | 30 | 
Cc1cc(Br)cc(COCC(N)C(c2ccccc2)c2ccccc2)c1 (stereo not shown) [Example 33, 2-Ammonium-1-((3-bromo-5-methylphenyl)methyloxy)-3,3-diphenylpropane oxalate salt] | 20 | 
N#CCNC(COCc1cc(C(F)(F)F)cc(C(F)(F)F)c1)C(c1ccccc1)c1ccccc1 (stereo not shown) [Example 34, 1-((3,5-Bis(trifluoromethyl)phenyl)methyloxy)-2-(cyanomethyl)amino-3,3-diphenylpropane] | 10 | 
Cc1cc(C)cc(COCC(C(c2ccccc2)c2ccccc2)N(C)CC(N)=O)c1 (stereo not shown) [Example 36, 2-(N-((Carboxamido)methyl)-N-methyl)ammonium-1-((3,5-dimethylphenyl)methyloxy)-3,3-diphenyl propane oxalate salt] | 7 | 
CC(=O)N(C)C(COCc1cc(C)cc(C)c1)C(c1ccccc1)c1ccccc1 (stereo not shown) [Example 37] | 200 | 
CC(=O)NC(COCc1cc(C)cc(C)c1)C(c1ccccc1)c1ccccc1 (stereo not shown) [Example 38, 2-Acetamido-1-(((3,5-dimethyl)phenyl)methyloxy)-3,3-diphenylpronane] | 70 | 
Cc1cc(C)cc(COCC(C(c2ccccc2)c2ccccc2)N(C)C(=O)c2ccccc2)c1 (stereo not shown) [Example 39, 2-(((N-Methyl)benzamido)-1-((3,5-dimethyl)phenyl)methyloxy)-3,3-diphenylpropane] | 800 | 
Cc1cc(C)cc(COCC(NC(=O)c2ccccc2)C(c2ccccc2)c2ccccc2)c1 (stereo not shown) [Example 40, 2-Benzamido-1-(((3,5-dimethyl)phenyl)methyloxy)3,3-diphenylpropane] | 580 | 
CNC(=O)NC(COCc1cc(C(F)(F)F)cc(C(F)(F)F)c1)C(c1ccccc1)c1ccccc1 (stereo not shown) [Example 42, N-(1-((3',5'-Bis(trifluoromethyl)phenyl)methyloxy)-3,3-diphenylprop-2-yl)-N'-methyl urea] | 40 | 
O=C(Nc1ccccc1)NC(COCc1cc(C(F)(F)F)cc(C(F)(F)F)c1)C(c1ccccc1)c1ccccc1 (stereo not shown) [Example 43, N-(1-((3',5'-Bis(trifluoromethyl)phenyl)methyloxy)-3,3-diphenylprop-2-yl)-N'-phenylurea] |  | 50
O=C(O)CNC(COCc1cc(C(F)(F)F)cc(C(F)(F)F)c1)C(c1ccccc1)c1ccccc1 (stereo not shown) [Example 44, N-(1-((3',5'-Bis(trifluoromethyl)phenyl)methyloxy)-3,3-diphenylprop-2-yl)glycine] | 15 | 
Cc1cc(C)cc(COCC(NCC(=O)O)C(c2ccccc2)c2ccccc2)c1 (stereo not shown) [Example 45, N-(1-(((3',5'-Dimethyl)phenyl)methyloxy)-3,3-diphenylprop-2-yl)glycine] | 40 | 
Cc1cc(C)cc(COCC(NCC(=O)NCC(N)=O)C(c2ccccc2)c2ccccc2)c1 (stereo not shown) [Example 46, N-(1-(((3',5'-Dimethyl)phenyl)methyloxy)-3,3-diphenylprop-2-yl)glycylglycine amide] | 4 | 
Cc1cc(C)cc(COCC(NCC(=O)NCc2ccccc2)C(c2ccccc2)c2ccccc2)c1 (stereo not shown) [Example 47, N-(1-(((3',5'-Dimethyl)phenyl)methyloxy)-3,3-diphenylprop-2-yl)glycylbenzamide oxalate salt] | 15 | 

Reference: patent US5629347A, “Aromatic compounds, pharmaceutical compositions containing them and their use in therapy” (Merck Sharp & Dohme Ltd., priority 1991, dated 1997)
